Results on five molecules are retold here after US20090036434A1, “Substituted aryl and heteroaryl derivatives as modulators of metabolism and the prophylaxis and treatment of disorders related thereto” (Arena Pharmaceuticals, Inc., priority 2004, published 2009).

The target in assay [1] is T1, RUP3 (Mus musculus, UniProt Q7TQP3).
T1 construct: randomly grouped (n=5) to receive a RUP3 agonist (either Compound B3 or B124); from tissue; host or cells: whole animal (male C57bl/6J mice), in vivo
T1 sequence (Q7TQP3 1-335): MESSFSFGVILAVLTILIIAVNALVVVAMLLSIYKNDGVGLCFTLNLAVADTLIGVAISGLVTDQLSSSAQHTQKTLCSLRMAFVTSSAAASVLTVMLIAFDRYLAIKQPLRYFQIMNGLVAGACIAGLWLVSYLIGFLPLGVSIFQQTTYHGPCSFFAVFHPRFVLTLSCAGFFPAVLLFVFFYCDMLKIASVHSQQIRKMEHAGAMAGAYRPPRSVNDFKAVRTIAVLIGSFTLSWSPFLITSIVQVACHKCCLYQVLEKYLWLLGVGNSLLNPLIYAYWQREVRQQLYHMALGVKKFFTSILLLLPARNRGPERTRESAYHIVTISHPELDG
Put plainly: Oral glucose tolerance test (oGTT) in mice. The class given is in vivo. The following applies: for Mean % Inhibition of Glucose Excursion: male C57bl/6J mice, dextrose 3 g/Kg oral; for Blood glucose after glucose challenge: male C57bl/6J mice, 1, 3 or 10 mg/Kg p.o. The method, then: Male C57bl/6J mice at approximately 8 weeks of age were fasted for 18 hours and randomly grouped (n=5) to receive a RUP3 agonist (either Compound B3 or B124) at 1, 3 or 10 mg/Kg. Compounds were delivered orally via a gavage needle (p.o., volume 10 mL/Kg). At time 0, levels of blood glucose were assessed using a glucometer (Elite XL, Bayer), and mice were administered either vehicle (20% hydroxypropyl-beta-cyclodextrin) or test compound. Thirty minutes after administration of test compound, levels of blood glucose were again assessed, and mice were administered dextrose orally at a dose of 3 g/Kg. Blood glucose measurements were then taken 20 min, 40 min, 60 min and 120 min after this time.

For assay [2], the target named is T2, RUP3 (Homo sapiens, UniProt Q8TDV5).
T2 construct: expressed in transfected cells; host or cells: melanophores (cultured per Potenza and Lerner 1992), electroporated with the RUP3 expression vector (pCMV)
T2 sequence (Q8TDV5 1-335): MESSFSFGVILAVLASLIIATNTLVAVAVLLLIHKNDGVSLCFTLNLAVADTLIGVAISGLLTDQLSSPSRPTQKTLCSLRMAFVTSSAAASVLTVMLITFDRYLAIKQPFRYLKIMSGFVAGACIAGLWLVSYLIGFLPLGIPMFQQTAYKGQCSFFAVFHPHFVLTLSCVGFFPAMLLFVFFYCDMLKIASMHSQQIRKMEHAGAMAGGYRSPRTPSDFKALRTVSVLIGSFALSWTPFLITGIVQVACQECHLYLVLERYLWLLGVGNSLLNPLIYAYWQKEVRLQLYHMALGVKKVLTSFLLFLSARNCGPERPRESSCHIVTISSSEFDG
As to the kind of experiment: Melanophore dispersion assay, RUP3 dose responses. The class given is cell-based. The following applies: melanophores transfected with RUP3 expression vector. The method, then: Melanophores are maintained in culture as reported by Potenza, M. N. and Lerner, M. R., in Pigment Cell Research, Vol. 5, 372-378, 1992 and transfected with the RUP3 expression vector (pCMV) using electroporation. Following electroporation, the transfected cells are plated into 96 well plates for the assay. The cells are then allowed to grow for 48 hours in order to both recover from the electroporation procedure and attain maximal receptor expression levels.
On the assay day, the growth medium on the cells is replaced with serum-free buffer containing 10 nM melatonin. The melatonin acts via an endogenous Gi-coupled GPCR in the melanophores to lower intracellular cAMP levels. In response to lowered cAMP levels, the melanophores translocate their pigment to the center of the cell. The net effect of this is a significant decrease in the absorbance reading of the cell monolayer in the well, measured at […].
After a 1-hour incubation in melatonin, the cells become completely pigment-aggregated. At this point a baseline absorbance reading is collected. Serial dilutions of test compounds are then added to the plate and compounds that stimulate RUP3 produce increases in intracellular cAMP levels. In response to these increased cAMP levels, the melanophores translocate their pigment back into the cell periphery. After one hour, stimulated cells are fully pigment-dispersed. The cell monolayer in the dispersed state absorbs much more light in the 600-650 nm range. The measured increase in absorbance compared to the baseline reading allows one to quantitate the degree of receptor stimulation and plot a dose-response curve.
The compounds in the above examples were screened using the melanophore dispersion assay, as described above.

Consider `CC(C)OC(=O)N1CCC(Oc2cc(Nc3ccc(S(C)(=O)=O)cc3F)ncn2)CC1` [Compound B3, 4-[6-(2-Fluoro-4-methanesulfonyl-phenylamino)-pyrimidin-4-yloxy]-piperidine-1-carboxylic acid isopropyl ester], for which the “Mean % Inhibition of Glucose Excursion” value in assay [1] (1 mg/Kg p.o.) amounted to 14.83%; in assay [1] (3 mg/Kg p.o.) it was 22.03%; in assay [1] (10 mg/Kg p.o.), 39.31%. Moreover, the “Blood glucose after glucose challenge” value in assay [1] is given as “lowered blood glucose in a dose-dependent manner”.
`Cc1ccc(Nc2cc(OC3CCN(C(=O)OC(C)(C)C)CC3)ncn2)cc1F` [Compound B16, 4-[6-(3-Fluoro-4-methyl-phenylamino)-pyrimidin-4-yloxy]-piperidine-1-carboxylic acid tert-butyl ester]: the midpoint of the response in assay [2], the EC50, lay at 62 nM.
Still for that read-out and setting: then `COc1ccc(Nc2cc(OC3CCN(C(=O)OC(C)(C)C)CC3)ncn2)cc1F` [Compound B21, 4-[6-(3-Fluoro-4-methoxy-phenylamino)-pyrimidin-4-yloxy]-piperidine-1-carboxylic acid tert-butyl ester], with 128 nM.
`CCCNc1ccc(Nc2cc(OC3CCN(C(=O)OC(C)C)CC3)ncn2)c(C)c1` [Compound B124, 4-[6-(2-Methyl-4-propylamino-phenylamino)-pyrimidin-4-yloxy]-piperidine-1-carboxylic acid isopropyl ester]: the “Mean % Inhibition of Glucose Excursion” value in assay [1] (1 mg/Kg p.o.) stood at 0%; in assay [1] (3 mg/Kg p.o.), 5.49%; in assay [1] (10 mg/Kg p.o.), 21.94%. Also, the “Blood glucose after glucose challenge” value in assay [1] was “lowered blood glucose in a dose-dependent manner”.
Consider `CC(C)OC(=O)N1CCC(Oc2cc(Oc3ccc(Br)cc3F)ncn2)CC1` [Compound B143, 4-[6-(4-Bromo-2-fluoro-phenoxy)-pyrimidin-4-yloxy]-piperidine-1-carboxylic acidisopropyl ester], for which the EC50 in assay [2] is 48 nM.
